Reference: patent US20230365639A1, “DEFENSIN FRAGMENT DERIVED LIPOPEPTIDES FOR TREATMENT OF DRUG-RESISTANT MICROORGANISMS” (priority 2020, published 2023)

How the values were obtained:
[1] = test system: ypuA promoter; test: ypuA promoter luciferase reporter gene assay; type: cell-based, Bacillus subitilis 1S34
Description: A specific bacterial reporter strain with the genetic background of Bacillus subitilis 1S34, carrying the promoter of the ypuA gene, fused to the firefly luciferase reporter gene, was used to identify cell envelope-related damage caused by treatment with antimicrobial compounds. Bacteria were cultured to an OD600 of 0.9 in LB broth with 5 μg/ml erythromycin at 37° C. and diluted to an OD600 of 0.02. Serial peptide dilutions (0.15-150 μM) were prepared in a microtiter plate and incubated with the adjusted bacterial suspension at 37° C. for 1 hour. Subsequently, citrate buffer (0.1 M, pH 5) containing 2 mM luciferin (Iris Biotech, Germany) was added and luminescence was measured using a microplate reader (Tecan, Switzerland).

[2] = test system: several pathogenic bacteria; test: Radial diffusion assay and MIC screening for antimicrobial activity; type: cell-based; conditions: radial diffusion assay and MIC determinations
Description: Methods: Log-phase bacteria were cultivated for up to 18 hours in TSB (TSB, Becton Dickinson, USA), washed and diluted to 4×10^6 CFU in 10 ml agar. Bacteria were incubated in 10 ml of 10 mM sodium phosphate, pH 7.4, containing 0.3 mg/ml of TSB powder and 1% (w/v) low EEO-agarose (AppliChem). Lipopeptides were pipetted into punched wells and diffused into the gel for 3 hours at 37° C. After that, a nutrient-rich gel with 6% TSB (w/v) and 1% agarose in 10 mM sodium phosphate buffer was poured on top of the first gel and incubated for up to 24 hours at 37° C. Then the diameter of inhibition zones was measured.
Clinical isolates of A. baumannii DSM30007, E. faecium DSM2918, K. pneumoniae DSM30104 and P. aeruginosa DSM1117 were provided by the Department for Laboratory Medicine at Robert-Bosch-Hospital Stuttgart, Germany. C. rodentium DSM16636 and E. coli DSM8695 were obtained from the Deutsche Sammlung von Mikroorganismen and Zellkultur GmbH Braunschweig, Germany. […]

[3] = Cellular toxicity, lactate dehydrogenase (LDH) assay; type: cell-based
Description: (§1) Methods: Cellular toxicity was determined by Lactate dehydrogenase concentration and WST-1 cell proliferation assay as well as hemolysis assay.

[4] = test system: C. rodentium strain ICC180; test: Established gastrointestinal infection caused by C. rodentium; type: in vivo, mice; conditions: two doses of 250 μg orally 5 days post infection; content or tissue not specified
Description: All mice were euthanized by asphyxiation with CO2 at indicated time points. Intestinal tissues (small intestine, cecum, colon) were removed aseptically. To collect intestinal content, organs were flushed with PBS. Organs were opened longitudinally, cleaned thoroughly with PBS and weighted. Organs and content were homogenized in PBS using a Polytron homogenizer (Kinemtatica). Dilutions of homogenized samples were plated on LB plates containing 50 μg/ml kanamycin to determine CFUs.
Methods: Citrobacter rodentium infection. Bioluminescence expressing C. rodentium strain ICC180 was used for all infection experiments (Wiles et al., 2004). C. rodentium inoculae were prepared by culturing bacteria overnight at 37° C. in LB broth with 50 μg/mI kanamycin. Subsequently, the culture was diluted 1:100 in fresh medium, and sub-cultured for 4 hours at 37° C. in LB broth (Thiemann et al., 2017). Bacteria were washed twice in phosphate-buffered saline (PBS). Mice were orally inoculated with 10^8 CFU of C. rodentium diluted in 200 μl PBS. Weight of the mice was monitored and feces was collected for measurements of the pathogen burden. 5 days post infection mice received twice 250 μg peptide solved in 100 μl PBS or only PBS orally. The following day, mice were sacrificed to assess bacterial burden in the lumen and tissues of the cecum and the colon. […]

[5] = Cellular toxicity, WST-1 cell proliferation assay; type: cell-based
Description: as §1

[6] = test system: red blood cell; test: Hemolysis assay; type: cell-based
Description: as §1

[7] = test system: C. albicans; test: Broth microdilution assay, antifungal activity; type: cell-based
Description: (§2) Methods: Broth microdilution assay. Candida was cultured in TSB over night at 37° C., centrifuged (1500 rpm, 10 min, RT) and washed twice with 10 mM sodium phosphate buffer containing 1% (w/v) TSB. Candida cells were counted and approximately 5×10^5 CFU/ml fungi were incubated with serial peptide concentrations (1.17-150 μM) in a final volume of 100 μl in 10 mM sodium phosphate buffer containing 1% (w/v) TSB for 2 hours at 37° C. After incubation, 100 μl of 6% TSB (w/v) was added and absorbance was measured at 600 nm (Tecan, Switzerland) and monitored for 18 hours. Afterwards, 100 μl per well was plated on YPD agar to determine the number of viable bacteria microbiologically.

[8] = test system: C. tropicalis; test: Broth microdilution assay, antifungal activity; type: cell-based
Description: as §2

Pam2-Glc-Suc-RGKAKCCK [Pam-1]
cell envelope damage (ypuA reporter) [1]: little cell envelope damage | antimicrobial activity, inhibition of bacterial growth of the tested strains [2]: generally inactive | LDH activity (cytotoxicity) [3]: no LDH activity | CFU's of C. rodentium in cecum [4]: did not reduce | CFU's of C. rodentium in colon [4]: did not reduce | metabolic activity (WST-1 assay) [5]: normal metabolic activity | red blood cell disruption (hemolysis) [6]: minimal red blood cell disruption | antifungal activity against C. albicans [7]: no antifungal activity | antifungal activity against C. tropicalis [8]: no antifungal activity
